Assay results published in US8178506B2, “Oligomeric compounds and compositions for use in modulation of small non-coding RNAs” (Regulus Therapeutics Inc., priority 2003, dated 2012).
In the oligonucleotide strings, read from the 5' end, every base follows the letter of its sugar. An asterisk marks phosphorothioate; unmarked linkages are phosphodiester. Other units and linkages are bracketed, terminal groups are in braces. A string of capitals states the bases alone. e = 2'-O-(2-methoxyethyl) (MOE); [5mC] = 5-methylcytosine

Key:
IL-12 mRNA = IL-12 mRNA in LPS-activated primary murine macrophages; format: cell-based, mouse; settings: normalized to LPS-treated cells without oligomeric compound
Protocol: To investigate the role of miRNAs in the immune response, oligomeric compounds of the present invention targeting miRNAs were tested for their effects upon lipopolysaccharide (LPS)-activated primary murine macrophages. Macrophages participate in the immune response, for example, in the recognition and phagocytosis of microorganisms, including bacteria. Interferon-gamma (IFN-gamma) released by helper T cells is one type of signal required for macrophage activation, and LPS can serve as an additional stimulus. LPS is a component of the gram-negative bacterial cell wall and acts as an agonist for toll-like receptor 4 (TLR4), the primary LPS receptor expressed by macrophages. The proinflammatory cytokines interleukin-12 (IL-12) and interleukin-6 (IL-6) are induced by LPS treatment of macrophages, thus the expression of the mRNAs encoding these cytokines was used to evaluate the response of macrophages to LPS following treatment with oligomeric compounds targeting miRNAs.
Macrophages were isolated as follows. Female C57B1/6 mice (Charles River Laboratories, Wilmington, Mass.) were injected intraperitoneally with 1 ml 3% thioglycollate broth (Sigma-Aldrich, St. Louis, Mo.), and peritoneal macrophage cells were isolated by peritoneal lavage 4 days later. The cells were plated in 96-well plates at 40,000 cells/well for one hour in serum-free RPMI adjusted to contain 10 mM HEPES (Invitrogen Life Technologies, Carlsbad, Calif.), allowed to adhere, then non-adherent cells were washed away and the media was replaced with RPMI containing 10 mM HEPES, 10% FBS and penicillin/streptomycin (“complete” RPMI; Invitrogen Life Technologies, Carlsbad, Calif.).
Oligomeric compounds were introduced into the cells using the non-liposomal transfection reagent FuGENE 6 Transfection Reagent (Roche Diagnostics Corp., Indianapolis, Ind.). Oligomeric compound was mixed with FuGENE 6 in 1 mL of serum-free RPMI to achieve a concentration of 10 μL FuGENE per 1000 nM oligomeric compound. The oligomeric compound/FuGENE complex was allowed to form at room temperature for 20 minutes. This mixture was diluted to the desired concentration of oligomeric compound by the addition of the appropriate volume of complete RPMI. The final ratio of FuGENE 6 to oligomeric compound was 1 μL of FuGENE 6 per 100 nM oligomeric compound. A volume of 100 μL of oligomeric compound/FuGENE/RPMI was added to each well of the 96-well plate in which the macrophages were cultured. Each oligomeric compound treatment was repeated in triplicate.
Following oligomeric compound treatment, cells were stimultated with LPS. Cells were cultured in the presence of the transfection complex for approximately 24 to 28 hours at 37° C. and 5% CO2, after which the medium containing the transfection complex was removed from the cells, and complete RPMI containing 100 ng/mL LPS (Sigma-Aldrich Corp., St. Louis, Mo.) was added to the cells for a period of approximately 24 hours. Control samples included (1) cells receiving no oligomeric compound, stimulated with LPS and (2) cells receiving neither oligomeric compound nor LPS treatment.
In another embodiment, following oligomeric compound treatment, cells were first activated by IFN-gamma, to amplify the response to LPS. Cells were cultured in the presence of the transfection complex for approximately 24 hours at 37° C. and 5% CO2, at which point the medium containing the transfection complex was removed from the cells, and complete RPMI containing 100 ng/mL recombinant mouse IFN-gamma (R&D Systems, Minneapolis, Minn.) was added to the cells. After the 4 hour treatment with INF-gamma, cells were treated with 100 ng/mL LPS for approximately 24 hours. Control samples included (1) cells receiving no oligomeric compound, stimulated with LPS and (2) cells receiving neither oligomeric compound nor LPS treatment. […]

HuVECs = experiment: Endothelial tube formation assay in HuVECs; settings: for % Activity Relative to UTC (tube formation): 75 nM oligomeric compound; for tube formation: 75 nM
[1] = tested on: BJ, B16-F10, T47D, T47Dp53 and HeLa cells; experiment: Cell cycle assay (propidium iodide flow cytometry), cell line panel; format: cell-based; settings: 150 nM oligomeric compound, 4.5 μg/ml LIPOFECTIN, after 72 hours, propidium iodide flow cytometry
HeLa cells = experiment: Cell cycle assay in HeLa cells; format: cell-based, human; settings: HeLa cells, 150 nM oligomeric compound
adipocytes = experiment: Triglyceride accumulation assay in adipocytes; format: cell-based, human; settings: differentiating adipocytes transfected with oligomeric compound
aP2 = aP2 mRNA expression in adipocytes (real-time PCR); format: cell-based, human; settings: differentiating adipocytes transfected with oligomeric compound; for aP2 mRNA: Table 75
Glut4 = Glut4 mRNA expression in adipocytes (real-time PCR); format: cell-based, human; settings: differentiating adipocytes transfected with oligomeric compound
HSL = HSL mRNA expression in adipocytes (real-time PCR); format: cell-based, human; settings: differentiating adipocytes transfected with oligomeric compound
PPARγ = PPARγ mRNA expression in adipocytes (real-time PCR); format: cell-based, human; settings: differentiating adipocytes transfected with oligomeric compound
PEPCK-c = PEPCK-c mRNA expression in HepG2 cells; format: cell-based, human; settings: 100 nM; for decrease in PEPCK-c mRNA: HepG2, basal (no insulin)
Protocol: Approximately 28 hours after transfection, the cells are subjected to serum starvation for a period of 12 to 16 hours, using serum-free growth medium. Following serum starvation, cells are treated with 1 nM insulin (insulin-treated) or are left untreated (basal conditions) for approximately four hours. At the same time, untreated control cells in both plates are treated with 100 nM insulin to determine the maximal insulin response. Following insulin treatment (forty-eight hours after transfection), total RNA is harvested from all samples, and the amount of total RNA from each sample is determined using a Ribogreen assay (Invitrogen Corporation, Carlsbad, Calif.). Real-time PCR is performed on the total RNA samples using primer/probe sets for three insulin responsive genes: insulin-like growth factor binding protein-1 (IGFBP-1), cytosolic PEPCK (PEPCK-C), and follistatin. Gene expression levels obtained by real-time PCR are normalized for total RNA content in the samples.
Oligomeric compounds of the present invention were tested for their effects on insulin signaling in HepG2 cells. HepG2 cells were plated at 7500 cells/well in collagen coated 96-well plates. The following day, cells were transfected with oligomeric compounds targeting miRNAs using 100 nM oligomeric compound in LIPOFECTIN™ (Invitrogen Corporation, Carlsbad, Calif.) in two 96-well plates. The oligomeric compounds were tested in triplicate on each 96-well plate, except for positive and negative controls, which were measured up to six times per plate. At the end of transfection, the transfection medium was replaced by regular growth medium. Twenty-eight hours post-transfection, the cells were subjected to overnight (sixteen to eighteen hours) serum starvation using serum free growth medium. Forty-four hours post-transfection, the cells in the transfected wells were treated with either no insulin (“basal” Experiment 1, for identification of insulin-mimetic compounds) or with 1 nM insulin (“insulin treated” Experiment 2, for identification of insulin sensitizers) for four hours. At the same time, in both plates, cells in some of the un-transfected control wells are treated with 100 nM insulin to determine maximal insulin response. At the end of the insulin or no-insulin treatment (forty-eight hours post-transfection), total RNA is isolated from both the basal and insulin treated (1 nM) 96-well plates, and the amount of total RNA from each sample is determined using a Ribogreen assay (Molecular Probes, Eugene, Oreg.). Real-time PCR is performed on all the total RNA samples using primer/probe sets for three insulin responsive genes: PEPCK-c, IGFBP-1 and follistatin. Expression levels for each gene are normalized to total RNA, and values+standard deviation are expressed relative to the transfectant only untreated control (UTC) and negative control compounds.
Protocols for treatment of HepG2 cells and transfection of oligomeric compounds are as described in Example 18. Also as described in Example 18, forty-four hours post-transfection, the cells in the transfected wells were treated with either no insulin (“basal” Experiment 3 (below), for identification of insulin-mimetic compounds) or with 1 nM insulin (“insulin treated” Experiment 4 (below), for identification of insulin sensitizers) for four hours. At the same time, in both plates, cells in some of the un-transfected control wells are treated with 100 nM insulin to determine maximal insulin response. At the end of the insulin or no-insulin treatment (forty-eight hours post-transfection), total RNA is isolated from both the basal and insulin treated (1 nM) 96-well plates, and the amount of total RNA from each sample is determined using a Ribogreen assay (Molecular Probes, Eugene, Oreg.).

[2] = 24 hours, relative to untreated control (UTC = 100)
[3] = 48 hours after treatment, relative to untreated control (UTC=100)

With “327883 (antisense e[5mC]*eA*eG*eA*eA*e[5mC]*eT*eT*eA*eG*e[5mC]*e[5mC]*eA*e[5mC]*eT*eG*eT*eG*eA*eA) [compound 327883]” the “IL-12 mRNA expression, −IFN % UTC” value (IL-12 mRNA; 300 nM oligomeric compound and LPS, no IFN-gamma pretreatment, single experiment) was 266 % UTC, the “IL-12 mRNA expression, +IFN % UTC” value (IL-12 mRNA; 300 nM oligomeric compound, stimulation with IFN-gamma and LPS, average of 2 experiments) was 39 % UTC and the “% Activity Relative to UTC (tube formation)” value (shortened to “% Activity Relative to UTC”) (HuVECs; Table 56) was 92.9%.

For “327908 (antisense e[5mC]*eA*eA*eT*eG*e[5mC]*eA*eA*e[5mC]*eT*eA*e[5mC]*eA*eA*eT*eG*e[5mC]*eA*e[5mC]) [compound 327908]”, the “G1 (percentage of cells in phase of the cell cycle)” value [1] was 55.4%, the “G2/M (percentage of cells in phase of the cell cycle)” value [1] was 15.3% and the “S (percentage of cells in phase of the cell cycle)” value [1] was 29.2%. For the same substance, the “SubG1 (percentage of cells in phase of the cell cycle)” value [1] was 5.6%, the “aneuploid (percentage of cells)” value [1] was 13.1% and the “% cells aneuploid” value (HeLa cells; [2]) was 114%. For the same substance, the “% cells in cell cycle phase G1” value (HeLa cells; [2]) was 98%, the “% cells in cell cycle phase G2/M” value (HeLa cells; [2]) was 106% and the “% cells in cell cycle phase S” value (HeLa cells; [2]) was 99%. For the same substance, the “% cells in cell cycle phase subG1” value (HeLa cells; [2]) was 138%, the “% cells in cell cycle phase: G1” value (HeLa cells; [3]) was 99% and the “% cells in cell cycle phase: G2/M” value (HeLa cells; [3]) was 105%. The “% cells in cell cycle phase: S” value (HeLa cells; [3]) was 98%, the “% cells in cell cycle phase: aneuploid” value (HeLa cells; [3]) was 93% and the “% cells in cell cycle phase: subG1” value (HeLa cells; [3]) was 61%. The “% Activity Relative to UTC” value (HuVECs; Table 57) was 103.5%.

In the case of “327909 (antisense e[5mC]*e[5mC]*e[5mC]*eA*eA*e[5mC]*eA*eA*e[5mC]*eA*eT*eG*eA*eA*eA*e[5mC]*eT*eA*e[5mC]*e[5mC]*eT*eA) [compound 327909]”, the “G1 (percentage of cells in phase of the cell cycle)” value [1] is reported as 52.6%, the “G2/M (percentage of cells in phase of the cell cycle)” value [1] is reported as 17.3% and the “S (percentage of cells in phase of the cell cycle)” value [1] is reported as 30.1%. For the same substance, the “SubG1 (percentage of cells in phase of the cell cycle)” value [1] was 7.9%, the “aneuploid (percentage of cells)” value [1] was 16.3% and the “TG (triglyceride accumulation)” value (adipocytes) was 132 percentage of untreated control (UTC). The “AP2 mRNA” value (aP2) was 88 percentage of untreated control (UTC), the “GLUT4 mRNA” value (Glut4) was 132 percentage of untreated control (UTC) and the “% Activity Relative to UTC” value (HuVECs; Table 57) was 96.6%. For the same substance, the “HSL mRNA” value (HSL) was 130 percentage of untreated control (UTC) and the “PPAR gamma mRNA” value (PPARγ) was 96 percentage of untreated control (UTC).

In the case of “327914 (antisense eG*e[5mC]*e[5mC]*e[5mC]*eT*eT*eT*eT*eA*eA*e[5mC]*eA*eT*eT*eG*e[5mC]*eA*e[5mC]*eT*eG) [compound 327914]”, the “G1 (percentage of cells in phase of the cell cycle)” value [1] is reported as 55.8%, the “G2/M (percentage of cells in phase of the cell cycle)” value [1] is reported as 15.3% and the “S (percentage of cells in phase of the cell cycle)” value [1] is reported as 28.9%. The “SubG1 (percentage of cells in phase of the cell cycle)” value [1] was 8.5%, the “aneuploid (percentage of cells)” value [1] was 16.2% and the “% Activity Relative to UTC” value (HuVECs; Table 57) was 82.8%.

For “327966 (antisense eA*eT*e[5mC]*e[5mC]*eA*eA*eT*e[5mC]*eA*eG*eT*eT*e[5mC]*e[5mC]*eT*eG*eA*eT*eG*e[5mC]*eA*eG*eT*eA) [compound 327966]”, the “TG (triglyceride accumulation)” value (adipocytes; Table 75) was 52 percentage of untreated control (UTC), the “aP2 mRNA” value (aP2) was 53 percentage of untreated control (UTC) and the “GLUT4 mRNA” value (Glut4; Table 75) was 43 percentage of untreated control (UTC). The “% Activity Relative to UTC” value (HuVECs; Table 59) was 40.0%, the “HSL mRNA” value (HSL; Table 75) was 56 percentage of untreated control (UTC) and the “PPAR gamma mRNA” value (PPARγ; Table 75) was 77 percentage of untreated control (UTC).

In the case of “327968 (antisense e[5mC]*eA*eA*eT*eG*e[5mC]*eA*eA*e[5mC]*eA*eG*e[5mC]*eA*eA*eT*eG*e[5mC]*eA*e[5mC]) [compound 327968]”, the “TG (triglyceride accumulation)” value (adipocytes; Table 75) is reported as 94 percentage of untreated control (UTC), the “aP2 mRNA” value (aP2) is reported as 67 percentage of untreated control (UTC) and the “GLUT4 mRNA” value (Glut4; Table 75) is reported as 85 percentage of untreated control (UTC). The “% Activity Relative to UTC” value (HuVECs; Table 59) was 93.3%, the “HSL mRNA” value (HSL; Table 75) was 79 percentage of untreated control (UTC) and the “PPAR gamma mRNA” value (PPARγ; Table 75) was 79 percentage of untreated control (UTC).

In the case of “CAGTGAATTCTACCAGTGCCATA (anti-miR; chemistry not fully specified) [ISIS 327899]”, the “decrease in PEPCK-c mRNA” value (PEPCK-c) is reported as 58% and the tube formation (HuVECs) is reported as “suppressed tube formation”.

With “CGCGTACCAAAAGTAATAATG (anti-miR; chemistry not fully specified) [ISIS 327886]” the “decrease in PEPCK-c mRNA” value (PEPCK-c) was 39% and the tube formation (HuVECs) was “suppressed tube formation”.

“GAGACCCAGTAGCCAGATGTAGCT (chemistry not given here) [ISIS 327920]” was tested, and the “reduction of PEPCK-c mRNA expression” value (PEPCK-c; HepG2, 1 nM insulin) was 41%, the “decrease in PEPCK-c mRNA” value (PEPCK-c) was 48% and the tube formation (HuVECs) was “suppressed tube formation”.
